Measurements reported in patent US9890156B2, “Bicyclic heterocycles as FGFR4 inhibitors” (Incyte Corporation, priority 2015, dated 2018).
Where two headings read alike, the source gives them in different places.

Tests used:
[1] = molecular target: FGFR4 (Homo sapiens (Human), UniProt P22455); experiment: FGFR Enzymatic Assay (FRET, peptide phosphorylation), FGFR4
[2] = molecular target: FGFR3 (Homo sapiens (Human), UniProt P22607); experiment: FGFR Enzymatic Assay (FRET, peptide phosphorylation), FGFR3; assay type: biochemical; settings: pre-incubated for 4 hours; ATP 140 μM
Sequence of FGFR3 (P22607 23-806): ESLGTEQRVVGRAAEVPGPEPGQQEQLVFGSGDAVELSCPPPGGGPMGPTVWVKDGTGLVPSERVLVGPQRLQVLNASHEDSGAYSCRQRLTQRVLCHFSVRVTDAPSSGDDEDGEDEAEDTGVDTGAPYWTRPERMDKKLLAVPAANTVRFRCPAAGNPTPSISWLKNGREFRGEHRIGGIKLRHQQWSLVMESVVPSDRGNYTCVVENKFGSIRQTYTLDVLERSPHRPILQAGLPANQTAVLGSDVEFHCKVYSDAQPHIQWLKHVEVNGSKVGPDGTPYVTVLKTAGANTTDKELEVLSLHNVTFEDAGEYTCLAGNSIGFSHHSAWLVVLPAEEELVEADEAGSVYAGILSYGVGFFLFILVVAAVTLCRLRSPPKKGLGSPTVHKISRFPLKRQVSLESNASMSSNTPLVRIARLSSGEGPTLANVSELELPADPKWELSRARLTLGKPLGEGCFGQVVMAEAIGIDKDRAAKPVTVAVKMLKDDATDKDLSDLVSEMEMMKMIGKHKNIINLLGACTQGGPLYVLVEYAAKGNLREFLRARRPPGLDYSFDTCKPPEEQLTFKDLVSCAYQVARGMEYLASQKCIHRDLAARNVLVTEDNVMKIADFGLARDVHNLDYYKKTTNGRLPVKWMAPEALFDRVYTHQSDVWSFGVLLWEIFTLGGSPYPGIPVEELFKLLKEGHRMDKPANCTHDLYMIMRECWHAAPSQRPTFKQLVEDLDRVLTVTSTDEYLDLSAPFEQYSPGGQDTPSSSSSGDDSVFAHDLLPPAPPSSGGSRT

[3] = molecular target: FGFR1 (Homo sapiens (Human), UniProt P11362); experiment: FGFR Enzymatic Assay (FRET, peptide phosphorylation), FGFR1; settings: read-out: FGFR1 IC50; pre-incubated for 4 hours; ATP 210 uM
Sequence of FGFR1 (P11362 22-822): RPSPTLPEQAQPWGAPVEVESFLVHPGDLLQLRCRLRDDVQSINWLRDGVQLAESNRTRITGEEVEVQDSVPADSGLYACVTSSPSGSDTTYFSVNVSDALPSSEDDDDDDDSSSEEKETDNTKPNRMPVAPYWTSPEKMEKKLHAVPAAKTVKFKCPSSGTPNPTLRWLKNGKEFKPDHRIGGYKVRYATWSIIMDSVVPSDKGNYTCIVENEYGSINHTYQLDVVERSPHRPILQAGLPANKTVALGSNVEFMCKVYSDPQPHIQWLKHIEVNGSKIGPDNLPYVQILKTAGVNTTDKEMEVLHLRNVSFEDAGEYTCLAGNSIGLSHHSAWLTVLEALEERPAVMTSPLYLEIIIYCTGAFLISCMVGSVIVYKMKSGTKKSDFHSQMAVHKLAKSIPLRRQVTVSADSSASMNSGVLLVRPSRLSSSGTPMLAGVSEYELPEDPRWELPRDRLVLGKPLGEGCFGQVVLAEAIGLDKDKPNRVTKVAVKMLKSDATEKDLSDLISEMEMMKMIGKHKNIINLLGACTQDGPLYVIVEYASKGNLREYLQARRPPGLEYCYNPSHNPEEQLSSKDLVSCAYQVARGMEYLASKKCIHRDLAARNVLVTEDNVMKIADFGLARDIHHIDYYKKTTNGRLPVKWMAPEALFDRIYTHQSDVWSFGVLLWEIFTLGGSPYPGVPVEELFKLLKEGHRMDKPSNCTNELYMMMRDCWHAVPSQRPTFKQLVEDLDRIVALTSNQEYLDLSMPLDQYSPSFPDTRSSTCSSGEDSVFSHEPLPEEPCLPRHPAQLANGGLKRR

[4] = molecular target: FGFR2 (Homo sapiens (Human), UniProt P21802); experiment: FGFR Enzymatic Assay (FRET, peptide phosphorylation), FGFR2; settings: read-out: FGFR2 IC50; pre-incubated for 4 hours; ATP 100 uM
Sequence of FGFR2 (P21802 22-821): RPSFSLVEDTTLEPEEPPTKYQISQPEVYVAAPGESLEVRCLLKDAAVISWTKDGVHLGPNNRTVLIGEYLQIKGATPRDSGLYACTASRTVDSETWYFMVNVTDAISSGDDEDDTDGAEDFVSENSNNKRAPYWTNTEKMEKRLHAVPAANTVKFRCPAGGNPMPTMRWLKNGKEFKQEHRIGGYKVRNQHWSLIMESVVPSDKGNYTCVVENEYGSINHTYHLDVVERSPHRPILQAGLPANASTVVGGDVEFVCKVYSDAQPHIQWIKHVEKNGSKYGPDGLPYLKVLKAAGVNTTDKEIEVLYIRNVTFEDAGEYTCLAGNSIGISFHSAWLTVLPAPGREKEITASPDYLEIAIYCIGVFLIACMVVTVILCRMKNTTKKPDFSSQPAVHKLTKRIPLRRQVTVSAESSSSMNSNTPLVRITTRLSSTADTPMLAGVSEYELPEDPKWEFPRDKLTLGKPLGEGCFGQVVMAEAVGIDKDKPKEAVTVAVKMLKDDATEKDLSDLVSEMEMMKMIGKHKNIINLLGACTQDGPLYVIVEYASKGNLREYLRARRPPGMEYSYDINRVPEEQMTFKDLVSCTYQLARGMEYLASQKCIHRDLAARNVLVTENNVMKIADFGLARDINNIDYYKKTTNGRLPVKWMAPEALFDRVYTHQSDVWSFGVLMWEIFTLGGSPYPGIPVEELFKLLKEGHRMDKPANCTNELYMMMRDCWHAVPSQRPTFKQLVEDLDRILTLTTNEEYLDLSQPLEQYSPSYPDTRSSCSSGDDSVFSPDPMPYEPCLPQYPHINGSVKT

[5] = read-out: FGFR4 IC50, pre-incubated for 4 hours, ATP 600 uM

Sequence of FGFR4 (P22455 22-802): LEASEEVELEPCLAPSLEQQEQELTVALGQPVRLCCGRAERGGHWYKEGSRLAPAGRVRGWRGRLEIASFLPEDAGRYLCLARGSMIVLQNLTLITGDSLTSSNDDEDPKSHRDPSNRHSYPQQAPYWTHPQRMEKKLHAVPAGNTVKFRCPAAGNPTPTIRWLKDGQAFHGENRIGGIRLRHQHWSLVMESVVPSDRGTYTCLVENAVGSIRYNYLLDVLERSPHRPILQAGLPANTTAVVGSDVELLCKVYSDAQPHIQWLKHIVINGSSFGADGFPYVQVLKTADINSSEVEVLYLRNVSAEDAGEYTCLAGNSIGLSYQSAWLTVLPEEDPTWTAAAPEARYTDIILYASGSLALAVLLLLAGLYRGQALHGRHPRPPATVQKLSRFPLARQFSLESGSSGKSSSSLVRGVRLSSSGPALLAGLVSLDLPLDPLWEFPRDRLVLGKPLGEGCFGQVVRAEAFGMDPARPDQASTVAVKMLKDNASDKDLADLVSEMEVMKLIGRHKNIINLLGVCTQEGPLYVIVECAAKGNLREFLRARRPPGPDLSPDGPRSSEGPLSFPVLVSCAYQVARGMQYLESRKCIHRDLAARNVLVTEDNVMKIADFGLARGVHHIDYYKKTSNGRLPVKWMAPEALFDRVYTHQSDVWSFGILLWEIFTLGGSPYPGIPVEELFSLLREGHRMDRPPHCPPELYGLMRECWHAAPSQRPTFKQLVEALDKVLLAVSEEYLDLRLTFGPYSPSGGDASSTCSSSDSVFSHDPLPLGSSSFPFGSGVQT

Compound	IC50 ([1]; read-out: FGFR4 IC50, pre-incubated for 5 to 10 minutes, ATP 600 uM)	IC50 [1, 5]	IC50 [2]	IC50 [3]	IC50 [4]	IC50 [1]
C=CC(=O)NCc1cc2c(cn1)CN(c1c(F)c(OC)cc(OC)c1F)C(=O)C21CC1 [Example 1, N-{[2′-(2,6-difluoro-3,5-dimethoxyphenyl)-3′-oxo-2′,3′-dihydro-1′H-spiro[cyclopropane-1,4′-[2,7]naphthyridin]-6′-yl]methyl}acrylamide]	< 10 nM	< 10 nM	–	–	–	–
C=CC(=O)NCc1cc2c(cn1)CN(c1c(F)c(OC)cc(OC)c1F)C(=O)N2c1cccnc1 [Example 3, N-((3-(2,6-difluoro-3,5-dimethoxyphenyl)-2-oxo-1-(pyridin-3-yl)-1,2,3,4-tetrahydropyrido[4,3-d]pyrimidin-7-yl)methyl)acrylamide]	–	–	> 200 nM	> 200 nM	> 200 nM	10 to 30 nM
C=CC(=O)NCc1ncc2c(n1)C1(CC1)C(=O)N(c1c(F)c(OC)cc(OC)c1F)C2 [Example 4, N-((6′-(2,6-difluoro-3,5-dimethoxyphenyl)-7′-oxo-6′,7′-dihydro-5′H-spiro[cyclopropane-1,8′-pyrido[4,3-d]pyrimidine]-2′-yl)methyl)acrylamide]	–	–	> 200 nM	> 200 nM	> 200 nM	10 to 30 nM
C=CC(=O)NCc1cc2c(cn1)CN(c1c(F)c(OC)cc(OC)c1F)C(=O)C21CCCC1 [Example 5, N-((2′-(2,6-difluoro-3,5-dimethoxyphenyl)-3′-oxo-2′,3′-dihydro-1′H-spiro[cyclopentane-1,4′-[2,7]naphthyridine]-6′-yl)methyl)acrylamide]	–	< 10 nM	> 200 nM	> 200 nM	> 200 nM	–
C=CC(=O)NCc1cc2c(cn1)CN(c1c(F)c(OC)cc(OC)c1F)C(=O)N2c1ccccc1 [Example 6, N-((3-(2,6-difluoro-3,5-dimethoxyphenyl)-2-oxo-1-phenyl-1,2,3,4-tetrahydropyrido[4,3-d]pyrimidin-7-yl)methyl)acrylamide]	–	–	> 200 nM	> 200 nM	> 200 nM	10 to 30 nM
C=CC(=O)NCc1cc2c(cn1)CN(c1c(F)c(OC)cc(OC)c1F)C(=O)N2c1ccn(C)n1 [Example 7, N-((3-(2,6-difluoro-3,5-dimethoxyphenyl)-1-(1-methyl-1H-pyrazol-3-yl)-2-oxo-1,2,3,4-tetrahydropyrido[4,3-d]pyrimidin-7-yl)methyl)acrylamide]	–	–	> 200 nM	> 200 nM	> 200 nM	10 to 30 nM
C=CC(=O)NCc1cc2c(cn1)CN(c1c(F)c(OC)cc(OC)c1F)C(=O)N2[C@H]1CCOC1 [Example 8, (S)—N-((3-(2,6-difluoro-3,5-dimethoxyphenyl)-2-oxo-1-(tetrahydrofuran-3-yl)-1,2,3,4-tetrahydropyrido[4,3-d]pyrimidin-7-yl)methyl)acrylamide]	–	< 10 nM	> 200 nM	> 200 nM	> 200 nM	–
C=CC(=O)NCc1cc2c(cn1)CN(c1c(F)c(OC)cc(OC)c1F)C(=O)N2C1CC(F)(F)C1 [Example 9, N-((3-(2,6-difluoro-3,5-dimethoxyphenyl)-1-(3,3-difluorocyclobutyl)-2-oxo-1,2,3,4-tetrahydropyrido[4,3-d]pyrimidin-7-yl)methyl)acrylamide]	–	–	> 200 nM	> 200 nM	> 200 nM	10 to 30 nM
C=CC(=O)NCc1cc2c(cn1)CN(c1c(F)c(OC)cc(OC)c1F)C(=O)N2C1CC1 [Example 10, N-((1-cyclopropyl-3-(2,6-difluoro-3,5-dimethoxyphenyl)-2-oxo-1,2,3,4-tetrahydropyrido[4,3-d]pyrimidin-7-yl)methyl)acrylamide]	–	–	> 200 nM	> 200 nM	> 200 nM	10 to 30 nM
C=CC(=O)NCc1cc2c(cn1)CN(c1c(F)c(OC)cc(OC)c1F)C(=O)N2Cc1cccc(F)c1 [Example 16, N-((3-(2,6-difluoro-3,5-dimethoxyphenyl)-1-(3-fluorobenzyl)-2-oxo-1,2,3,4-tetrahydropyrido[4,3-d]pyrimidin-7-yl)methyl)acrylamide]	–	–	–	30 to 200 nM	–	10 to 30 nM
C=CC(=O)NCc1cc2c(cn1)CN(c1c(F)c(OC)cc(OC)c1F)C(=O)N2Cc1cccnc1 [Example 17, N-((3-(2,6-difluoro-3,5-dimethoxyphenyl)-2-oxo-1-(pyridin-3-ylmethyl)-1,2,3,4-tetrahydropyrido[4,3-d]pyrimidin-7-yl)methyl)acrylamide]	–	–	> 200 nM	> 200 nM	> 200 nM	10 to 30 nM
C=CC(=O)NCc1cc2c(cn1)CN(c1c(F)c(OC)cc(OC)c1F)C(=O)N2Cc1cnn(C)c1 [Example 18, N-((3-(2,6-difluoro-3,5-dimethoxyphenyl)-1-((1-methyl-1H-pyrazol-4-yl)methyl)-2-oxo-1,2,3,4-tetrahydropyrido[4,3-d]pyrimidin-7-yl)methyl)acrylamide]	–	< 10 nM	–	30 to 200 nM	–	–
C=CC(=O)NCc1cc2c(cn1)CN(c1c(F)c(OC)cc(OC)c1F)C(=O)N2C[C@H]1CCOC1 [Example 19, (R)—N-((3-(2,6-difluoro-3,5-dimethoxyphenyl)-2-oxo-1-((tetrahydrofuran-3-yl)methyl)-1,2,3,4-tetrahydropyrido[4,3-d]pyrimidin-7-yl)methyl)acrylamide]	–	< 10 nM	> 200 nM	> 200 nM	> 200 nM	–
C=CC(=O)NCc1cc2c(cn1)CN(c1c(F)c(OC)cc(OC)c1F)C(=O)N2C1CCOCC1 [Example 23, N-((3-(2,6-difluoro-3,5-dimethoxyphenyl)-2-oxo-1-(tetrahydro-2H-pyran-4-yl)-1,2,3,4-tetrahydropyrido[4,3-d]pyrimidin-7-yl)methyl)acrylamide]	–	–	–	–	–	10 to 30 nM
C=CC(=O)NCc1cc2c(cn1)CN(c1c(F)c(OC)cc(OC)c1F)C(=O)N2C1CCCC1 [Example 28, N-((1-cyclopentyl-3-(2,6-difluoro-3,5-dimethoxyphenyl)-2-oxo-1,2,3,4-tetrahydropyrido[4,3-d]pyrimidin-7-yl)methyl)acrylamide]	–	< 10 nM	–	30 to 200 nM	–	–
C=CC(=O)NCc1cc2c(cn1)CN(c1c(F)c(OC)cc(OC)c1F)C(=O)N2CC1CCN(C(=O)OC)CC1 [Example 33, methyl 4-((7-(acrylamidomethyl)-3-(2,6-difluoro-3,5-dimethoxyphenyl)-2-oxo-3,4-dihydropyrido[4,3-d]pyrimidin-1(2H)-yl)methyl)piperidine-1-carboxylate]	–	< 10 nM	–	> 200 nM	> 200 nM	–

Results, then the compound that gave them:

IC50 ([1]; read-out: FGFR4 IC50, pre-incubated for 5 to 10 minutes, ATP 600 uM)	IC50 [1, 5]	IC50 [2]	IC50 [3]	IC50 [4]	IC50 [1]	Compound
–	< 10 nM	> 200 nM	> 200 nM	> 200 nM	–	C=CC(=O)NCc1cc2c(cn1)CN(c1c(F)c(OC)cc(OC)c1F)C(=O)N2CC [Example 2, N-((3-(2,6-difluoro-3,5-dimethoxyphenyl)-1-ethyl-2-oxo-1,2,3,4-tetrahydropyrido[4,3-d]pyrimidin-7-yl)methyl)acrylamide]
–	< 10 nM	> 200 nM	> 200 nM	> 200 nM	–	C=CC(=O)NCc1cc2c(cn1)CN(c1c(F)c(OC)cc(OC)c1F)C(=O)N2CCOC [Example 11, N-((3-(2,6-difluoro-3,5-dimethoxyphenyl)-1-(2-methoxyethyl)-2-oxo-1,2,3,4-tetrahydropyrido[4,3-d]pyrimidin-7-yl)methyl)acrylamide]
–	< 10 nM	> 200 nM	> 200 nM	> 200 nM	–	C=CC(=O)NCc1cc2c(cn1)CN(c1c(F)c(OC)cc(OC)c1F)C(=O)N2CCC [Example 12, N-((3-(2,6-difluoro-3,5-dimethoxyphenyl)-2-oxo-1-propyl-1,2,3,4-tetrahydropyrido[4,3-d]pyrimidin-7-yl)methyl)acrylamide]
–	< 10 nM	–	30 to 200 nM	–	–	C=CC(=O)NCc1cc2c(cn1)CN(c1c(F)c(OC)cc(OC)c1F)C(=O)N2CC1CC1 [Example 13, N-((1-(cyclopropylmethyl)-3-(2,6-difluoro-3,5-dimethoxyphenyl)-2-oxo-1,2,3,4-tetrahydropyrido[4,3-d]pyrimidin-7-yl)methyl)acrylamide]
–	< 10 nM	> 200 nM	> 200 nM	> 200 nM	–	C=CC(=O)NCc1cc2c(cn1)CN(c1c(F)c(OC)cc(OC)c1F)C(=O)N2CC(F)F [Example 14, N-((3-(2,6-difluoro-3,5-dimethoxyphenyl)-1-(2,2-difluoroethyl)-2-oxo-1,2,3,4-tetrahydropyrido[4,3-d]pyrimidin-7-yl)methyl)acrylamide]
–	< 10 nM	> 200 nM	> 200 nM	> 200 nM	–	C=CC(=O)NCc1cc2c(cn1)CN(c1c(F)c(OC)cc(OC)c1F)C(=O)N2C(C)C [Example 15, N-((3-(2,6-difluoro-3,5-dimethoxyphenyl)-1-isopropyl-2-oxo-1,2,3,4-tetrahydropyrido[4,3-d]pyrimidin-7-yl)methyl)acrylamide]
–	< 10 nM	> 200 nM	30 to 200 nM	–	–	C=CC(=O)NCc1cc2c(cn1)CN(c1c(F)c(OC)cc(OC)c1F)C(=O)N2CC(C)C [Example 29, N-((3-(2,6-difluoro-3,5-dimethoxyphenyl)-1-isobutyl-2-oxo-1,2,3,4-tetrahydropyrido[4,3-d]pyrimidin-7-yl)methyl)acrylamide]
–	< 10 nM	> 200 nM	30 to 200 nM	–	–	C=CC(=O)NCc1cc2c(cn1)CN(c1c(F)c(OC)cc(OC)c1F)C(=O)N2CC1CCC1 [Example 30, N-((1-(cyclobutylmethyl)-3-(2,6-difluoro-3,5-dimethoxyphenyl)-2-oxo-1,2,3,4-tetrahydropyrido[4,3-d]pyrimidin-7-yl)methyl)acrylamide]
